According to article PMC8470058 (Antibiotics, 2021):

Assays:
[1] = CP-C patients in ICU; cited from earlier work
[2] = both, human, in vivo
Description: Researchers conducted the prospective observational study and collected the hospital information and laboratory information at one tertiary hospital from January 2018 to December 2019. […] This study was approved by the Ethics Committee of The Second […] Hospital of Central South University with an approved NO. yxlb-lays-2018012. Venous blood samples (2 mL) were collected into anticoagulant tubes. […] Monitoring continued every 3 days. […] The two-dimensional separation conditions consisted of FRO C18 (100 mm × 3.0 mm, 5 μm, ANAX) and ASTON HD C18 (150 mm × 4.6 mm, 5 μm, ANAX) with the same flow rate 1.0 mL/min. […] This laboratory participated in the annual national external quality assessment scheme. […] The Child-Pugh class and MELD score were calculated based on previous criteria. The Pearson correlation and nonparametric Spearman correlation were used to study the relationship between clinical or laboratory data and Cmins during the therapy, according to the type of variables. […] The Cmins measured after withdrawal or lack of the corresponding key values of clinical or laboratory data were excluded in pairs in the bivariate correlation analysis or in rows in the multiple linear regression. For the regression analysis, the genotype of CYP2C19 was set as a dummy variable.

[3] = cited from earlier work
[4] = Voriconazole-related adverse events in Child–Pugh class C patients; format: in vivo, human
From the text: Forty-three CP-C Asian patients were eligible to participate in the study (Figure 1a). The female-to-male ratio was 4/39. The mean patient age and weight were 49.35 ± 11.65 years (range, 32 to 89 years) and 61.27 ± 12.87 kg (range, 36 to 99 kg). […] The median sampling time of C0 was 5 days (interquartile range (IQR), 3 to 5 days; range, 3 to 11 days).
Researchers conducted the prospective observational study and collected the hospital information and laboratory information at one tertiary hospital from January 2018 to December 2019. […] The administration regimen is mainly under empirical treatment regimens, and the adjustment is generally based on the results of TDM. This study was approved by the Ethics Committee of The Second XiangYa Hospital of Central South University with an approved NO. yxlb-lays-2018012.
Data were extracted from medical records and laboratory information systems, including voriconazole-related information (Cmins, timing, amount, route), demographics, laboratory data, and concomitant medications (antimicrobial agents, CYP2C19 inducers, and inhibitors). The first trough concentration, the repeated measured ones and the last one of patients were recorded as C0, C1, Css, respectively. The Child–Pugh class and MELD score were calculated based on previous criteria.

For `C[C@@H](c1ncncc1F)[C@](O)(Cn1cncn1)c1ccc(F)cc1F` [voriconazole], which “Change of terminal half-life (t1/2)” value [1] is on record?
Its value is “increased about five times”.

What about the “Median terminal t1/2” value [1] of the same compound?
The value was 60.7 h.

And the “Decrease of Cmin in male patients compared to the female” value [2]?
The value was 1651 ng/mL.

What about the “Decrease of concentration with a one-unit increase in PTA count” value [2] of the same compound?
Its value is 0.035 mg/L.

What about the “Patients with targeted C0 reaching supratherapeutic levels with no adjusted daily dose” value [2] of the same compound?
Its value is 25.8%.

And the Oral bioavailability [3]?
The Oral bioavailability was 91.6%.

And the “Patients with adverse events identified as voriconazole related” value ([4]; 20 of 43 patients, dizziness, hallucinations, visual disturbance)?
Its value is 46.5%.

What about the “Median duration from voriconazole initiation to onset of adverse events” value ([4]; range, 1 to 12 days) of the same compound?
Its value is 2 days.
